Measurements from patent US12503436B2, “Compounds and compositions for treating conditions associated with STING activity” (NOVARTIS PHARMA AG, priority 2021, dated 2025).

Biological target: STING (Homo sapiens, UniProt Q86WV6, G230A/H232R/R293Q/R71H)
Experiment: STING reporter assay in THP1-Dual KO-IFNAR2 cells (2′3′cGAMP stimulation, luciferase reporter)
Type: cell-based
Details: 15 μM 2′3′cGAMP stimulation, 24 h, read-out: Pharmaron, THP1_IFNAR2 STING 24 h Luci Normalized: GeoMean EC50
Experimental: STING pathway activation by the compounds described herein was measured using THP1-Dual™ cells (KO-IFNAR2).
THP1-Dual™ KO-IFNAR2 Cells (obtained from InvivoGen) were maintained in RPMI, 10% FCS, 5 ml P/S, 2 mM L-glut, 10 mM Hepes, and 1 mM sodium pyruvate. Compounds were spotted in empty 384 well tissue culture plates (Greiner 781182) by Echo for a final concentration of 0.0017-100 μM. Cells were plated into the TC plates at 40 μL per well, 2×10E6 cells/mL. For activation with STING ligand, 2′3′cGAMP (MW 718.38, obtained from Invivogen), was prepared in Optimem media.
The following solutions were prepared for each 1×384 plate: • Solution A: 2 mL Optimem with one of the following stimuli: • 60 μL of 10 mM 2′3′cGAMP→150 μM stock • Solution B: 2 mL Optimem with 60 μL Lipofectamine 2000→Incubate 5 min at RT
2 mL of solution A and 2 ml Solution B was mixed and incubated for 20 min at room temperature (RT). 20 μL of transfection solution (A+B) was added on top of the plated cells, with a final 2′3′cGAMP concentration of 15 μM. The plates were then centrifuged immediately at 340 g for 1 minute, after which they were incubated at 37° C., 5% CO2, >98% humidity for 24 h. Luciferase reporter activity was then measured. EC50 values were calculated by using standard methods known in the art.
Luciferase reporter assay: 10 μL of supernatant from the assay was transferred to white 384-plate with flat bottom and squared wells. One pouch of QUANTI-Luc™ Plus was dissolved in 25 mL of water. 100 μL of QLC Stabilizer per 25 mL of QUANTI-Luc™ Plus solution was added. 50 μL of QUANTI-Luc™ Plus/QLC solution per well was then added. Luminescence was measured on a Platereader (e.g., Spectramax I3X (Molecular Devices GF3637001)).
Luciferase reporter activity was then measured. EC50 values were calculated by using standard methods known in the art.

STING, sequence (Q86WV6 whole entry R71H/G230A/H232R/R293Q): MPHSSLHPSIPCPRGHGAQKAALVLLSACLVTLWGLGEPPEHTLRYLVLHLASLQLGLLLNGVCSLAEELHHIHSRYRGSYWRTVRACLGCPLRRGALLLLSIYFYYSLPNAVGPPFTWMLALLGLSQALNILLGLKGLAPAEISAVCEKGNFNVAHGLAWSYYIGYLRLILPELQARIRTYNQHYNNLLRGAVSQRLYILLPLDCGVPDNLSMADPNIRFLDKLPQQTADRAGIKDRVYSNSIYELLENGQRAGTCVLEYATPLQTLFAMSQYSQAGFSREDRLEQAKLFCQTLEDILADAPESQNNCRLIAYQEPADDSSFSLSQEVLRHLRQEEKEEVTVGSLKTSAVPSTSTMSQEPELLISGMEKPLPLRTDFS

SMILES	EC50 [µM]
CC(=O)Nc1c[nH]c2ccc(OCC(C)(C)C3CCN(CC(F)(F)F)CC3)cc12 [Compound 108, N-(5-(2-methyl-2-(1-(2,2,2-trifluoroethyl)piperidin-4-yl)propoxy)-1H-indol-3-yl)acetamide]	5 to 100
O=C(Nc1c[nH]c2ccc(COCc3ccc(C(F)(F)F)cc3)cc12)C1CCC1 [Compound 109, N-(5-(((4-(trifluoromethyl)benzyl)oxy)methyl)-1H-indol-3-yl)cyclobutanecarboxamide]	0.04 to 0.2
CC(=O)Nc1c[nH]c2ccc(OCC[C@@H]3[C@H]4CN(CC(F)(F)F)C[C@@H]34)cc12 [Compound 110, N-(5-(2-((1R,5S,6s)-3-(2,2,2-trifluoroethyl)-3-azabicyclo[3.1.0]hexan-6-yl)ethoxy)-1H-indol-3-yl)acetamide]	0.2 to 1
CC(=O)Nc1c[nH]c2ccc(COCc3ccc(C(F)(F)F)cc3)cc12 [Compound 111, N-(5-(((4-(trifluoromethyl)benzyl)oxy)methyl)-1H-indol-3-yl)acetamide]	0.04 to 0.2
CC(=O)Nc1c[nH]c2ccc(OCC(F)(F)CN3CCC(F)(F)CC3)cc12 [Compound 112, N-(5-(3-(4,4-difluoropiperidin-1-yl)-2,2-difluoropropoxy)-1H-indol-3-yl)acetamide]	5 to 100
CC(=O)Nc1c[nH]c2ccc(OCCc3ccc(C(F)(F)F)nc3)cc12 [Compound 113, N-(5-(2-(6-(trifluoromethyl)pyridin-3-yl)ethoxy)-1H-indol-3-yl)acetamide]	1 to 5
CC(=O)Nc1c[nH]c2ccc(CCC3CCN(CC(F)(F)F)CC3)cc12 [Compound 114, N-(5-(2-(1-(2,2,2-trifluoroethyl)piperidin-4-yl)ethyl)-1H-indol-3-yl)acetamide]	0.2 to 1
CC(=O)Nc1c[nH]c2ccc(COc3ccc(C(F)(F)F)cc3)cc12 [Compound 115, N-(5-((4-(trifluoromethyl)phenoxy)methyl)-1H-indol-3-yl)acetamide]	0.04 to 0.2
CC(=O)Nc1c[nH]c2ccc(Oc3ccc(C(F)(F)F)cn3)cc12 [Compound 116, N-(5-((5-(trifluoromethyl)pyridin-2-yl)oxy)-1H-indol-3-yl)acetamide]	5 to 100
COCC(=O)Nc1c[nH]c2ccc(OCCC3CCN(CC(F)(F)F)CC3)cc12 [Compound 117, 2-methoxy-N-(5-(2-(1-(2,2,2-trifluoroethyl)piperidin-4-yl)ethoxy)-1H-indol-3-yl)acetamide]	0.2 to 1
CC(C)(O)CC(=O)Nc1c[nH]c2ccc(OCCC3CCN(CC(F)(F)F)CC3)cc12 [Compound 118, 3-hydroxy-3-methyl-N-(5-(2-(1-(2,2,2-trifluoroethyl)piperidin-4-yl)ethoxy)-1H-indol-3-yl)butanamide]	0.2 to 1
CC(=O)Nc1c[nH]c2ccc(OCC3CCN(CC(F)(F)F)CC3)cc12 [Compound 119, N-(5-((1-(2,2,2-trifluoroethy|)piperidin-4-yl)methoxy)-1H-indol-3-yl)acetamide]	5 to 100
CC(=O)Nc1c[nH]c2ccc(OC[C@@H]3[C@H]4CN(CC(F)(F)F)C[C@@H]34)cc12 [Compound 120, N-(5-(((1R,5S,6r)-3-(2,2,2-trifluoroethyl)-3-azabicyclo[3.1.0]hexan-6-yl)methoxy)-1H-indol-3-yl)acetamide]	5 to 100
COCCCC(=O)Nc1c[nH]c2ccc(OCCC3CCN(CC(F)(F)F)CC3)cc12 [Compound 121, 4-methoxy-N-(5-(2-(1-(2,2,2-trifluoroethyl)piperidin-4-yl)ethoxy)-1H-indol-3-yl)butanamide]	0.2 to 1
CC(=O)Nc1c[nH]c2ccc(OCCC3CCN(CC(F)(F)F)CC3)cc12 [Compound 122, N-(5-(2-(1-(2,2,2-trifluoroethyl)piperidin-4-yl)ethoxy)-1H-indol-3-yl)acetamide]	0.2 to 1
CC(=O)Nc1c[nH]c2ccc(Oc3ccc(C(F)(F)F)nc3)cc12 [Compound 123, N-(5-((6-(trifluoromethyl)pyridin-3-yl)oxy)-1H-indol-3-yl)acetamide]	5 to 100
CC(=O)Nc1c[nH]c2ccc(Oc3ccc(C(F)(F)F)cc3)cc12 [Compound 124, N-(5-(4-(trifluoromethyl)phenoxy)-1H-indol-3-yl)acetamide]	1 to 5
CC(=O)Nc1c[nH]c2ccc(CNc3ccc(C(F)(F)F)nc3)cc12 [Compound 125, N-(5-(((6-(trifluoromethyl)pyridin-3-yl)amino)methyl)-1H-indol-3-yl)acetamide]	0.2 to 1

SMILES	EC50 [µM]
CC(=O)Nc1c[nH]c2ccc(CCNc3ccc(C(F)(F)F)nc3)cc12 [Compound 126, N-(5-(2-((6-(trifluoromethyl)pyridin-3-yl)amino)ethyl)-1H-indol-3-yl)acetamide]	1 to 5
CC(=O)Nc1c[nH]c2ccc(CCOc3ccc(C(F)(F)F)cc3)cc12 [Compound 127, N-(5-(2-(4-(trifluoromethyl)phenoxy)ethyl)-1H-indol-3-yl)acetamide]	0.04 to 0.2
CC(=O)Nc1c[nH]c2ccc(Cc3ccc(C(F)(F)F)cc3)cc12 [Compound 128, N-(5-(4-(trifluoromethyl)benzyl)-1H-indol-3-yl)acetamide]	0.2 to 1
O=C(Nc1c[nH]c2ccc(OCCC3CCN(CC(F)(F)F)CC3)cc12)C1CCC1 [Compound 129, N-(5-(2-(1-(2,2,2-trifluoroethyl)piperidin-4-yl)ethoxy)-1H-indol-3-yl)cyclobutanecarboxamide]	0.2 to 1
CCC(=O)Nc1c[nH]c2ccc(COc3ccc(C(F)(F)F)cc3)cc12 [Compound 130, N-(5-((4-(trifluoromethyl)phenoxy)methyl)-1H-indol-3-yl)propionamide]	0.2 to 1
CC(CCc1ccc(C(F)(F)F)cc1)c1ccc2[nH]cc(NC(=O)C3CCC3)c2c1 (stereo not drawn) [Compound 131, N-(5-(4-(4-(trifluoromethyl)phenyl)butan-2-yl)-1H-indol-3-yl)cyclobutanecarboxamide]	1 to 5
CC(=O)Nc1c[nH]c2ccc(CCCc3ccc(C(F)(F)F)cc3)cc12 [Compound 132, N-(5-(3-(4-(trifluoromethyl)phenyl)propyl)-1H-indol-3-yl)acetamide]	0.04 to 0.2
COC(CCc1ccc2[nH]cc(NC(=O)C3CCC3)c2c1)c1ccc(C(F)(F)F)cc1 (stereo not drawn) [Compound 133, N-(5-(3-methoxy-3-(4-(trifluoromethyl)phenyl)propyl)-1H-indol-3-yl)cyclobutanecarboxamide]	0.2 to 1
O=C(Nc1c[nH]c2ccc(CCNc3ccc(C(F)(F)F)cn3)cc12)C1CCC1 [Compound 134, N-(5-(2-((5-(trifluoromethyl)pyridin-2-yl)amino)ethyl)-1H-indol-3-yl)cyclobutanecarboxamide]	0.2 to 1
O=C(Nc1c[nH]c2ccc(/C=C/Cc3ccc(C(F)(F)F)cc3)cc12)C1CCC1 [Compound 135, (E)-N-(5-(3-(4-(trifluoromethyl)phenyl)prop-1-en-1-yl)-1H-indol-3-yl)cyclobutanecarboxamide]	0.2 to 1
CC(=O)Nc1c[nH]c2ccc(OCCc3ccc(C(F)(F)F)cc3)cc12 [Compound 136, N-(5-(4-(trifluoromethyl)phenethoxy)-1H-indol-3-yl)acetamide]	0.04 to 0.2
CC(Cc1ccc(C(F)(F)F)cc1)Cc1ccc2[nH]cc(NC(=O)C3CCC3)c2c1 (stereo not drawn) [Compound 137, N-(5-(2-methyl-3-(4-(trifluoromethyl)phenyl)propyl)-1H-indol-3-yl)cyclobutanecarboxamide]	1 to 5
CCC(=O)Nc1c[nH]c2ccc(OCc3ccc(C(F)(F)F)cc3)cc12 [Compound 138, N-(5-((4-(trifluoromethyl)benzyl)oxy)-1H-indol-3-yl)propionamide]	0.2 to 1
O=C(Nc1c[nH]c2ccc(CCCc3ccc(C(F)(F)F)cc3)cc12)C1CCC1 [Compound 139, N-(5-(3-(4-(trifluoromethyl)phenyl)propyl)-1H-indol-3-yl)cyclobutanecarboxamide]	0.04 to 0.2
CC(C)(C)OC(=O)N1CCC(CCOc2ccc3[nH]cc(NC(=O)C4CCC4)c3c2)CC1 [Compound 140, tert-butyl 4-(2-((3-(cyclobutanecarboxamido)-1H-indol-5-yl)oxy)ethyl)piperidine-1-carboxylate]	0.2 to 1
O=C(Nc1c[nH]c2ccc(CCc3ccc(C(F)(F)F)cc3)cc12)C1CCC1 [Compound 141, N-(5-(4-(trifluoromethyl)phenethyl)-1H-indol-3-yl)cyclobutanecarboxamide]	1 to 5
O=C(Nc1c[nH]c2ccc(OCCc3ccc(C(F)(F)F)nc3)cc12)C1CCC1 [Compound 142, N-(5-(2-(6-(trifluoromethyl)pyridin-3-yl)ethoxy)-1H-indol-3-yl)cyclobutanecarboxamide]	0.2 to 1
CCO/C=C/c1ccc2[nH]cc(NC(=O)C3CCC3)c2c1 [Compound 143, (E)-N-(5-(2-ethoxyvinyl)-1H-indol-3-yl)cyclobutanecarboxamide]	1 to 5
